# Results from patent US11826399B2, “Chlorotoxin agents and uses thereof” (Eisai Inc., priority 2017, dated 2023).
# “And” between values parts separate entries of the source, which are not always exact repeats. Equal values may be shown once.
# Columns and labels:
# [1] = tested on: PC-3 human prostate cancer cells; experiment: Co-administration of Cryptophycin Payload with CTX or iRGD in subcutaneous PC-3 xenograft model; type: in vivo, mouse; conditions: Cryptophycin Payload alone at 0.4 mg/kg IV
# Method: PC-3 human prostate cancer cells (ATCC CRL-1435) were grown in RPMI-1640 medium supplemented with 10% FBS. For inoculation, 2×10^6 PC-3 cancer cells were injected subcutaneously into mice near the right axillary area using a 27-gauge needle in a volume of 0.1 mL. Mice were immune-compromised NU/NU nude females, approximately 6 weeks old from Charles River Labs. Tumors were measured at least twice weekly using calipers and mice were randomized into treatment groups based on tumor size when the average tumor reached approximately 180 mm^3. All treatments were initiated 17 days after tumor inoculation. The experiment included a vehicle-treated group and drug-treated groups (n=5). […]
# General health of the mice was monitored and mortality recorded daily. Tumor volume was assessed by caliper (Mitutoyo, Aurora, IL) measurements (mm) using the formula (1×w^2)/2=mm^3, where 1 and w refer to the larger and smaller perpendicular dimensions collected at each measurement. Tumor dimensions were recorded twice per week starting at the initiation of drug treatment. Body weights were recorded twice per week starting on the first day of treatment. Relative body weight was calculated as follows: Relative body weight=(body weight on day of measurement/body weight on first day of treatment). […] The mean±SEM for tumor volume and mean±SEM for relative body weight for each experimental group was calculated. […]
# [2] = Plasma and tissue distribution of Cryptophycin Payload and Cryptophycin Metabolite 1 after Cryptophycin Payload alone or with CTX in PC-3 xenograft nude mice (LC-MS/MS); type: in vivo, mouse
# Method: For the present experiment, materials, methods, drugs and model were as described in Example 21. […] Following intravenous administration, whole blood samples were collected at predetermined time points via cardiac puncture (n=3 mice per time point). Blood samples were centrifuged to obtain plasma and subsequently stored at […] or lower pending analysis. Additionally, at each time point, kidney, liver, small intestine, brain, heart, and tumor were harvested by removing entire specimen from surrounding tissues (only a portion of liver and small intestine were removed). After removal, tissues were rinsed with normal saline solution (contents of small intestine were emptied) and blotted dry with clean adsorptive tissue. Once dried, the specimens were weighed and stored at −20° C. or lower pending analysis. […] Pharmacokinetic (PK) parameters were calculated. Mean plasma and tissue concentrations were used to calculate mean PK parameters. Skin and skeletal muscle which were not assessed due to difficulty of homogenization.
# Vehicle for single dose group was 10% ethanol, 5% Tween 80, 85% saline. Vehicle for combination treatment was 5% ethanol, 2.5% Tween 80, 92.5% saline.
# [3] = Brain, Payload 0.4 mg/kg + CTX 16 mg/kg IV
# [4] = Brain, Payload 0.4 mg/kg IV alone
# [5] = Heart, Payload 0.4 mg/kg + CTX 16 mg/kg IV
# [6] = Heart, Payload 0.4 mg/kg IV alone
# [7] = Kidney, Payload 0.4 mg/kg + CTX 16 mg/kg IV
# [8] = Kidney, Payload 0.4 mg/kg IV alone
# [9] = Liver, Payload 0.4 mg/kg + CTX 16 mg/kg IV
# [10] = Liver, Payload 0.4 mg/kg IV alone
# [11] = Payload 0.4 mg/kg + CTX 16 mg/kg IV, 0.083 h
# [12] = Payload 0.4 mg/kg + CTX 16 mg/kg IV, 0.5 h
# [13] = Payload 0.4 mg/kg + CTX 16 mg/kg IV, 1 h
# [14] = Payload 0.4 mg/kg + CTX 16 mg/kg IV, 2 h
# [15] = Payload 0.4 mg/kg + CTX 16 mg/kg IV, 6 h
# [16] = Payload 0.4 mg/kg + CTX 16 mg/kg IV, 24 h
smiles,measurement,setting,value
CCCCNC(=O)Cc1ccccc1SSC(C)(C)CCN1CCN(Cc2ccc(C3OC3C(C)C3CC=CC(=O)NC(Cc4ccc(OC)c(Cl)c4)C(=O)NCC(C)(C)C(=O)NC(CC(C)C)C(=O)O3)cc2)CC1 (stereo not drawn) [Cryptophycin Payload],Antitumor activity (tumor volume),[1],significant antitumor activity
same,AUC(0-t) of Cryptophycin Payload,[2]; [3],3.69 ng·h/g
same,tmax of Cryptophycin Payload,[2]; [3],4.8 min
same,TPI of Cryptophycin Payload,"[2]; Brain, Payload 0.4 mg/kg + CTX 16 mg/kg IV, AUC0-2 h tissue/AUC0-2 h plasma",0.0315 mL/g and 0.0315^d mL/g
same,AUC(0-inf) of Cryptophycin Payload,[2]; [4],3.57 ng·h/g
same,AUC(0-t) of Cryptophycin Payload,[2]; [4],3.02 ng·h/g
same,t1/2 of Cryptophycin Payload,[2]; [4],56.5 min
same,tmax of Cryptophycin Payload,[2]; [4],4.98 min and 4.8 min
same,TPI of Cryptophycin Payload,"[2]; Brain, Payload 0.4 mg/kg IV alone, AUC0-2 h tissue/AUC0-2 h plasma",0.0208 mL/g and 0.0208^d mL/g
same,AUC(0-inf) of Cryptophycin Payload,[2]; [5],62.0 ng·h/g
same,AUC(0-t) of Cryptophycin Payload,[2]; [5],59.2 ng·h/g
same,t1/2 of Cryptophycin Payload,[2]; [5],86.4 min
same,tmax of Cryptophycin Payload,[2]; [5],4.8 min
same,TPI of Cryptophycin Payload,"[2]; Heart, Payload 0.4 mg/kg + CTX 16 mg/kg IV, AUC0-inf tissue/AUC0-inf plasma",0.481 mL/g
same,AUC(0-inf) of Cryptophycin Payload,[2]; [6],38.9 ng·h/g
same,AUC(0-t) of Cryptophycin Payload,[2]; [6],36.8 ng·h/g
same,t1/2 of Cryptophycin Payload,[2]; [6],103 min
same,tmax of Cryptophycin Payload,[2]; [6],4.98 min and 4.8 min
same,TPI of Cryptophycin Payload,"[2]; Heart, Payload 0.4 mg/kg IV alone, AUC0-inf tissue/AUC0-inf plasma",0.253 mL/g
same,AUC(0-inf) of Cryptophycin Payload,[2]; [7],1230 ng·h/g
same,AUC(0-t) of Cryptophycin Payload,[2]; [7],1210 ng·h/g
same,t1/2 of Cryptophycin Payload,[2]; [7],251 min
same,tmax of Cryptophycin Payload,[2]; [7],30 min
same,TPI of Cryptophycin Payload,"[2]; Kidney, Payload 0.4 mg/kg + CTX 16 mg/kg IV, AUC0-inf tissue/AUC0-inf plasma",9.53 mL/g
same,AUC(0-inf) of Cryptophycin Payload,[2]; [8],826 ng·h/g
same,AUC(0-t) of Cryptophycin Payload,[2]; [8],804 ng·h/g
same,t1/2 of Cryptophycin Payload,[2]; [8],282 min
same,tmax of Cryptophycin Payload,[2]; [8],4.98 min and 4.8 min
same,TPI of Cryptophycin Payload,"[2]; Kidney, Payload 0.4 mg/kg IV alone, AUC0-inf tissue/AUC0-inf plasma",5.36 mL/g
same,AUC(0-t) of Cryptophycin Payload,[2]; [9],15.1 ng·h/g
same,tmax of Cryptophycin Payload,[2]; [9],60 min
same,TPI of Cryptophycin Payload,"[2]; Liver, Payload 0.4 mg/kg + CTX 16 mg/kg IV, AUC0-6 h tissue/AUC0-6 h plasma",0.118 mL/g and 0.118^c mL/g
same,AUC(0-t) of Cryptophycin Payload,[2]; [10],9.65 ng·h/g
same,tmax of Cryptophycin Payload,[2]; [10],4.98 min and 4.8 min
same,TPI of Cryptophycin Payload,"[2]; Liver, Payload 0.4 mg/kg IV alone, AUC0-6 h tissue/AUC0-6 h plasma",0.0631 mL/g and 0.0631^c mL/g
same,"Concentration of Cryptophycin Payload, Brain, Mean",[2]; [11],3.97 ng/g
same,"Concentration of Cryptophycin Payload, Heart, Mean",[2]; [11],47.3 ng/g
same,"Concentration of Cryptophycin Payload, Kidney, Mean",[2]; [11],389 ng/g
same,"Concentration of Cryptophycin Payload, Liver, Mean",[2]; [11],3.89 ng/g
same,"Concentration of Cryptophycin Payload, Plasma, Mean",[2]; [11],0.268 µg/mL
same,"Concentration of Cryptophycin Payload, Small Intestine, Mean",[2]; [11],19.8 ng/g
same,"Concentration of Cryptophycin Payload, Tumor, Mean",[2]; [11],12.5 ng/g
same,"Concentration of Cryptophycin Payload, Brain, Mean",[2]; [12],2.09 ng/g
same,"Concentration of Cryptophycin Payload, Heart, Mean",[2]; [12],41.3 ng/g
same,"Concentration of Cryptophycin Payload, Kidney, Mean",[2]; [12],411 ng/g
same,"Concentration of Cryptophycin Payload, Liver, Mean",[2]; [12],7.13 ng/g
same,"Concentration of Cryptophycin Payload, Plasma, Mean",[2]; [12],0.0379 µg/mL
same,"Concentration of Cryptophycin Payload, Small Intestine, Mean",[2]; [12],13.4 ng/g
same,"Concentration of Cryptophycin Payload, Tumor, Mean",[2]; [12],10.3 ng/g
same,"Concentration of Cryptophycin Payload, Brain, Mean",[2]; [13],2.07 ng/g
same,"Concentration of Cryptophycin Payload, Heart, Mean",[2]; [13],18.7 ng/g
same,"Concentration of Cryptophycin Payload, Kidney, Mean",[2]; [13],317 ng/g
same,"Concentration of Cryptophycin Payload, Liver, Mean",[2]; [13],7.13 ng/g
same,"Concentration of Cryptophycin Payload, Plasma, Mean",[2]; [13],0.0438 µg/mL
same,"Concentration of Cryptophycin Payload, Small Intestine, Mean",[2]; [13],15.5 ng/g
same,"Concentration of Cryptophycin Payload, Tumor, Mean",[2]; [13],9.46 ng/g
same,"Concentration of Cryptophycin Payload, Brain, Mean",[2]; [14],0.703 ng/g
same,"Concentration of Cryptophycin Payload, Heart, Mean",[2]; [14],6.37 ng/g
same,"Concentration of Cryptophycin Payload, Kidney, Mean",[2]; [14],179 ng/g
same,"Concentration of Cryptophycin Payload, Liver, Mean",[2]; [14],2.13 ng/g
same,"Concentration of Cryptophycin Payload, Plasma, Mean",[2]; [14],0.00753 µg/mL
same,"Concentration of Cryptophycin Payload, Small Intestine, Mean",[2]; [14],5.66 ng/g
same,"Concentration of Cryptophycin Payload, Tumor, Mean",[2]; [14],10.1 ng/g
same,"Concentration of Cryptophycin Payload, Brain, Mean",[2]; [15],BLQ
same,"Concentration of Cryptophycin Payload, Heart, Mean",[2]; [15],1.39 ng/g
same,"Concentration of Cryptophycin Payload, Kidney, Mean",[2]; [15],35.9 ng/g
same,"Concentration of Cryptophycin Payload, Liver, Mean",[2]; [15],0.632 ng/g
same,"Concentration of Cryptophycin Payload, Plasma, Mean",[2]; [15],0.000537 µg/mL
same,"Concentration of Cryptophycin Payload, Small Intestine, Mean",[2]; [15],0.873 ng/g
same,"Concentration of Cryptophycin Payload, Tumor, Mean",[2]; [15],2.80 ng/g
same,"Concentration of Cryptophycin Payload, Brain, Mean",[2]; [16],BLQ
same,"Concentration of Cryptophycin Payload, Heart, Mean",[2]; [16],BLQ
